{"source": "patent US20080014186A1", "about": "“Hla-A24 or Hla-A2 Binding Peptides of Parathyroid Hormone-Related Protein” (GREEN PEPTIDE CO., LTD., priority 2004, published 2008)", "key": {"[1]": {"system": "PBMCs of HLA-A2^+ healthy donors and prostate cancer patients", "test": "Assay for peptide-specific CTLs in PBMCs (IFN-γ ELISA, peptide-pulsed T2 cells)", "assay_type": "cell-based, human", "details": "for INF-γ production: T2 cells"}, "[2]": {"system": "IgG in plasma of HLA-A2^+ healthy donors and prostate cancer patients", "test": "Peptide-specific IgG in plasma by ELISA (HLA-A2-binding PTHrP peptides)", "set-up": "species or system human", "details": "for IgG reactive to the peptide in plasma (difference of OD): 1:100-diluted plasma", "method": "Peptide-specific IgG levels in the plasma were measured by ELISA, as previously reported. In brief, peptide (20 μg/well)-immobilized plates were blocked with Block Ace (Yukijirushi, Tokyo, Japan) and washed with 0.05% Tween20-PBS, after which 100 μl/well of plasma sample diluted with 0.05% Tween20-Block Ace was added to the plate. After 2 hours incubation at 37° C., the plates were washed and further incubated for 2 hours with a 1:1000-diluted rabbit anti-human IgG (γ-chain-specific) (DAKO, Glostrup, Denmark). The plates were washed, and then 100 μl of 1:100-diluted goat anti-rabbit IgG-conjugated horseradish peroxidase (EnVision, DAKO) was added to each well, and the plates were then incubated at room temperature for 40 min. After the plates were washed once, 100 μl/well of tetramethyl benzidine substrate solution (KPL, Guildford, UK) was added, and the reaction was stopped by the addition of 1 M phosphoric acid. The values are shown as optical density (OD) units/ml, and responses to the HIV peptide were subtracted. IgG reactive to a corresponding PTHrP peptide was judged to be positive when the difference of the OD in 1:100-diluted plasma exceeded 0.05. The results that IgG reactive to either the PTHrP102-111 or the […] peptide was detected in 8 of 10 healthy donors and in 7 of 10 prostate cancers are shown in Table 2 hereinafter.\nIn a similar way to Example 3, it was examined whether IgGs reactive to peptides of PTHrP 42-51 and PTHrP 59-67 could be detected in the plasma of 10 healthy donors and 10 cancer patients. The cut-off value at 1:100-diluted plasma was ODO.054."}}}
{"sequence": "LLHDKGKSI [PTHrP 43-51]", "values": [{"measurement": "INF-γ production", "setting": "[1]; HLA-A2^+ healthy donor #1 (A0201)", "value": 17, "unit": "pg/mL"}, {"measurement": "INF-γ production", "setting": "[1]; HLA-A2^+ healthy donor #2 (A0201)", "value": 21, "unit": "pg/mL"}, {"measurement": "INF-γ production", "setting": "[1]; HLA-A2^+ healthy donor #3 (A0201)", "value": 23, "unit": "pg/mL"}, {"measurement": "INF-γ production", "setting": "[1]; HLA-A2^+ healthy donor #4 (A0201)", "value": 27, "unit": "pg/mL"}, {"measurement": "INF-γ production", "setting": "[1]; HLA-A2^+ healthy donor #5 (A0206)", "value": 0, "unit": "pg/mL"}, {"measurement": "INF-γ production", "setting": "[1]; HLA-A2^+ healthy donor #6 (A0206)", "value": 0, "unit": "pg/mL"}, {"measurement": "INF-γ production", "setting": "[1]; HLA-A2^+ healthy donor #7 (A0206)", "value": 0, "unit": "pg/mL"}, {"measurement": "INF-γ production", "setting": "[1]; HLA-A2^+ healthy donor #8 (A0206)", "value": 0, "unit": "pg/mL"}, {"measurement": "INF-γ production", "setting": "[1]; HLA-A2^+ healthy donor #9 (A0206)", "value": 0, "unit": "pg/mL"}, {"measurement": "INF-γ production", "setting": "[1]; HLA-A2^+ healthy donor #10 (A0207)", "value": 0, "unit": "pg/mL"}, {"measurement": "Total (donors with significant peptide-specific IFN-γ production / donors tested)", "setting": "[1]; HLA-A2^+ healthy donors, p < 0.05", "value": "0/10"}, {"measurement": "INF-γ production", "setting": "[1]; HLA-A2^+ prostate cancer patient #1 (A0206)", "value": 40, "unit": "pg/mL"}, {"measurement": "INF-γ production", "setting": "[1]; HLA-A2^+ prostate cancer patient #2 (A0210)", "value": 56, "unit": "pg/mL"}, {"measurement": "INF-γ production", "setting": "[1]; HLA-A2^+ prostate cancer patient #3 (A0210)", "value": 185, "unit": "pg/mL"}, {"measurement": "INF-γ production", "setting": "[1]; HLA-A2^+ prostate cancer patient #4 (A0206)", "value": 0, "unit": "pg/mL"}, {"measurement": "INF-γ production", "setting": "[1]; HLA-A2^+ prostate cancer patient #5 (A0206)", "value": 39, "unit": "pg/mL"}, {"measurement": "INF-γ production", "setting": "[1]; HLA-A2^+ prostate cancer patient #6 (A0207)", "value": 51, "unit": "pg/mL"}, {"measurement": "INF-γ production", "setting": "[1]; HLA-A2^+ prostate cancer patient #7 (A0206)", "value": 0, "unit": "pg/mL"}, {"measurement": "INF-γ production", "setting": "[1]; HLA-A2^+ prostate cancer patient #8 (A0206)", "value": 23, "unit": "pg/mL"}, {"measurement": "INF-γ production", "setting": "[1]; HLA-A2^+ prostate cancer patient #9 (A0201)", "value": 14, "unit": "pg/mL"}, {"measurement": "INF-γ production", "setting": "[1]; HLA-A2^+ prostate cancer patient #10 (A0201)", "value": 0, "unit": "pg/mL"}, {"measurement": "Total (patients with significant peptide-specific IFN-γ production / patients tested)", "setting": "[1]; HLA-A2^+ prostate cancer patients, p < 0.05", "value": "1/10"}, {"measurement": "IgG reactive to the peptide in plasma (difference of OD)", "setting": "[2]; HLA-A2^+ healthy donor #1", "value": "— (IgG reactive to a corresponding peptide was judged to be positive when a difference of OD in a 1:100-diluted plasma was more than 0.054.)"}, {"measurement": "IgG reactive to the peptide in plasma (difference of OD)", "setting": "[2]; HLA-A2^+ healthy donor #2", "value": 0.102, "unit": "OD"}, {"measurement": "IgG reactive to the peptide in plasma (difference of OD)", "setting": "[2]; HLA-A2^+ healthy donor #3", "value": "— (IgG reactive to a corresponding peptide was judged to be positive when a difference of OD in a 1:100-diluted plasma was more than 0.054.)"}, {"measurement": "IgG reactive to the peptide in plasma (difference of OD)", "setting": "[2]; HLA-A2^+ healthy donor #4", "value": 0.155, "unit": "OD"}, {"measurement": "IgG reactive to the peptide in plasma (difference of OD)", "setting": "[2]; HLA-A2^+ healthy donor #5", "value": "— (IgG reactive to a corresponding peptide was judged to be positive when a difference of OD in a 1:100-diluted plasma was more than 0.054.)"}, {"measurement": "IgG reactive to the peptide in plasma (difference of OD)", "setting": "[2]; HLA-A2^+ healthy donor #6", "value": "— (IgG reactive to a corresponding peptide was judged to be positive when a difference of OD in a 1:100-diluted plasma was more than 0.054.)"}, {"measurement": "IgG reactive to the peptide in plasma (difference of OD)", "setting": "[2]; HLA-A2^+ healthy donor #7", "value": "— (IgG reactive to a corresponding peptide was judged to be positive when a difference of OD in a 1:100-diluted plasma was more than 0.054.)"}, {"measurement": "IgG reactive to the peptide in plasma (difference of OD)", "setting": "[2]; HLA-A2^+ healthy donor #8", "value": 0.121, "unit": "OD"}, {"measurement": "IgG reactive to the peptide in plasma (difference of OD)", "setting": "[2]; HLA-A2^+ healthy donor #9", "value": "— (IgG reactive to a corresponding peptide was judged to be positive when a difference of OD in a 1:100-diluted plasma was more than 0.054.)"}, {"measurement": "IgG reactive to the peptide in plasma (difference of OD)", "setting": "[2]; HLA-A2^+ healthy donor #10", "value": "— (IgG reactive to a corresponding peptide was judged to be positive when a difference of OD in a 1:100-diluted plasma was more than 0.054.)"}, {"measurement": "Total (IgG-positive donors / donors tested)", "setting": "[2]; HLA-A2^+ healthy donors", "value": "3/10"}, {"measurement": "IgG reactive to the peptide in plasma (difference of OD)", "setting": "[2]; HLA-A2^+ prostate cancer patient #1", "value": "— (IgG reactive to a corresponding peptide was judged to be positive when a difference of OD in a 1:100-diluted plasma was more than 0.054.)"}, {"measurement": "IgG reactive to the peptide in plasma (difference of OD)", "setting": "[2]; HLA-A2^+ prostate cancer patient #2", "value": 0.078, "unit": "OD"}, {"measurement": "IgG reactive to the peptide in plasma (difference of OD)", "setting": "[2]; HLA-A2^+ prostate cancer patient #3", "value": "— (IgG reactive to a corresponding peptide was judged to be positive when a difference of OD in a 1:100-diluted plasma was more than 0.054.)"}, {"measurement": "IgG reactive to the peptide in plasma (difference of OD)", "setting": "[2]; HLA-A2^+ prostate cancer patient #4", "value": "— (IgG reactive to a corresponding peptide was judged to be positive when a difference of OD in a 1:100-diluted plasma was more than 0.054.)"}, {"measurement": "IgG reactive to the peptide in plasma (difference of OD)", "setting": "[2]; HLA-A2^+ prostate cancer patient #5", "value": "— (IgG reactive to a corresponding peptide was judged to be positive when a difference of OD in a 1:100-diluted plasma was more than 0.054.)"}, {"measurement": "IgG reactive to the peptide in plasma (difference of OD)", "setting": "[2]; HLA-A2^+ prostate cancer patient #6", "value": 0.0895, "unit": "OD"}, {"measurement": "IgG reactive to the peptide in plasma (difference of OD)", "setting": "[2]; HLA-A2^+ prostate cancer patient #7", "value": 0.0795, "unit": "OD"}, {"measurement": "IgG reactive to the peptide in plasma (difference of OD)", "setting": "[2]; HLA-A2^+ prostate cancer patient #8", "value": "— (IgG reactive to a corresponding peptide was judged to be positive when a difference of OD in a 1:100-diluted plasma was more than 0.054.)"}, {"measurement": "IgG reactive to the peptide in plasma (difference of OD)", "setting": "[2]; HLA-A2^+ prostate cancer patient #9", "value": "— (IgG reactive to a corresponding peptide was judged to be positive when a difference of OD in a 1:100-diluted plasma was more than 0.054.)"}, {"measurement": "IgG reactive to the peptide in plasma (difference of OD)", "setting": "[2]; HLA-A2^+ prostate cancer patient #10", "value": "— (IgG reactive to a corresponding peptide was judged to be positive when a difference of OD in a 1:100-diluted plasma was more than 0.054.)"}, {"measurement": "Total (IgG-positive patients / patients tested)", "setting": "[2]; HLA-A2^+ prostate cancer patients", "value": "3/10"}]}
